Reference: patent publication US8034810B2, “Arylsulfonamido-substituted hydroxamic acid derivatives” (Novartis AG, priority 1999, dated 2011)
pIC50: −log10 of the molar value. Where a name gives a salt, the structure may show the parent alone.

What follows are compounds tested against T1, MT1-MMP (Homo sapiens, UniProt P50281) (assay: In vitro inhibition of MT1-MMP, fluorogenic peptide substrate). Details: catalytic domain of human MT1-MMP; substrate 10 μM; 37° C.
T1 construct: made in house
Assay type: biochemical
Procedure: The inhibitory activities of compounds of formula I on MT1-MMP, MMP1 (collagenase 1) and MMP2 (gelatinase A) can be determined as follows:
Stock solutions of substrate (MCA-Pro-Leu-Gly-Leu-Dpa-Ala-Arg-NH2, Knight, C. G., Willenbrock, F., Murphy, G., A novel coumarin-labelled peptide for sensitive continuous assays of the matrix metalloproteinases, FEBS lett., 296, 263-266, (1992)), are prepared in 100% DMSO at a concentration 1.0 mM. Stock solutions of inhibitors are prepared in 100% DMSO. The inhibitor is diluted into the assays from a solution in 100% DMSO, and controls substitute an equal volume of DMSO so that the final DMSO concentration from inhibitor and substrate dilutions in all assays is 6.0%. Assays are performed in assay buffer (150 mM NaCl, 10 mM CaCl2, 50 mM Tris-Cl pH7.5, 0.05% Brij-35) containing 6.0% DMSO once the substrate and inhibitor are diluted into it. The substrate concentration used in the assays is 10 μM. The test is carried out at 37° C. The fluorescence changes are monitored using an excitation wavelength of 320 nm and an emission wavelength of […]. The reaction mixture is added in duplicate to appropriate wells of a 96 well microfluor plate. The reaction mixture is preincubated with the inhibitor for 30 min, the reaction is started by the addition of MMP enzyme and the fluorescence intensity is measured for 10 min. A time point that is on a linear part of the curve is chosen to determine the activity. The inhibition results are expressed as the inhibitor concentrations that produced 50% inhibition (IC50) of the activity in the control (non-inhibited) reaction. In this test, the compounds of the formula I and their pharmacologically acceptable salts have an inhibiting concentration IC50 [μmol/litre] of 0.0001 and 0.030, usually of 0.0002 to 0.010, for MMP2 and an inhibiting concentration IC50 [μmol/litre] of 0.0005 and 0.125, usually of 0.001 to 0.05, for MT1-MMP.
Plasmid: The catalytic domain of the cDNA fragment encoding a full length of human MT1-MMP gene [from Prof. Motoharu Seiki, Institute of Medical Science, The University of Tokyo; Sato, H., Takino, T., Okada, Y., Cao, J., Shinagawa, A., Yamamoto, E. and Seiki, M. Nature (London), 370:61-65, 1994)] is amplified by polymerase chain reaction (PCR). […] The resulting PCR product of a 519-bp fragment is subcloned between the NdeI and BamHI unique sites of pET11a (Stratagene). The sequence of catalytic domain of MT1-MMP (CD-MT1-MMP) is verified by the ABI PRIS™ dye terminator cycle sequencing kit with the ABI PRISM™ 377 DNA sequencer (Perkin Elmer).
Expression and Purification: The subcloned CD-MT1-MMP is used to transfect E. coli strain BL21-[DE3] (Hanahan, D. J. Mol. Biol. 1983; 166(4):557-80) and expressed as insoluble inclusion body materials. Transfectants are grown at 37° C. in 50 ml Luria-Bertani (LB) medium in the presence of 50 µg/ml ampicillin to a cell density of OD600=0.6-1.0, and CD-MT1-MMP production is induced with 1 mM isopropyl-1-D-galactopyranoside (IPTG). After treatments with 5 mg/ml lysozyme and 10 μg/ml DNase I, the inclusion bodies are prepared from the harvested cells by using the detergent buffer containing 0.2 M NaCl, 1% w/v deoxycholic acid, and 1% v/v Nonidet P40. The solubilization is achieved by resuspending the inclusion bodies in the solubilization buffer composed of 6 M urea, 100 mM 2-mercaptoethanol, and 20 mM Tris-Cl, pH8.5. The enzyme is purified and renaturated using 10 ml of a Q-Sepharose (Amersham Pharmacia Biotech) column equilibrated with 5 mM CaCl2, 0.02% v/v NaN3, in 20 mM Tris-Cl pH7.5. After washing with three volumes of the same buffer, the bound proteins are eluted with two volumes of a linear gradient of 0.5-1.0 M NaCl. The collected fractions (1 ml each) are dialyzed for 6 h in equilibrated buffer. Superdex G200 column (1×15 cm) (Amersham Pharmacia) is equilibrated in 20 mM Tris-Cl, pH 7.5, 5 mM CaCl2, 0.02% NaN3. The desalted sample is applied to Superdex G200 column and chromatographed at 0.5 ml/min. […]

Point of comparison: O=C(CN(Cc1ccc(-n2cncn2)cc1)S(=O)(=O)c1ccc(OCc2ccoc2)cc1)NO [Example 82c], pIC50 7.97. Against it:
- C=CCCOc1ccc(S(=O)(=O)N(CC(=O)NO)Cc2cccc(F)n2)cc1 [Example 83a, 2-([4-But-3-enyloxy-benzenesulfonyl]-(6-fluoro-pyridine-2-yl)methyl-amino)-N-hydroxyacetamide] — 1.55 log units higher, 9.52
- C=CCCOc1ccc(S(=O)(=O)N(CC(=O)NO)Cc2ccc(-n3cncn3)cc2)cc1 [Example 79, 2-[(4-but-3-enyloxy-benzenesulfonyl)-(4-[1,2,4]triazol-1-yl-benzyl)-amino]-N-hydroxy-acetamide-hydrochloride salt] — 1.18 log units higher, 9.15
- COc1ccc(CN(CC(=O)NO)S(=O)(=O)c2ccc(OCCCCl)cc2)cc1 [Example 68, 2-{[4-(3-chloro-propoxy)-benzenesulfonyl]-(4-methoxy-benzyl)amino}-N-hydroxy-acetamide] — 0.31 log units higher, 8.28
- C=CCCOc1ccc(S(=O)(=O)N(CC(=O)NO)Cc2ccc(N3CCCC3)cc2)cc1 [Example 84a, 2-[(4-But-3-enyloxy-benzenesulfonyl)-(4-(pyrrolidin-1-yl)-benzyl)-amino]-N-hydroxyacetamide-hydrochloride] — 0.28 log units lower, 7.69
- C=CCCOc1ccc(S(=O)(=O)N(CC(=O)NO)Cc2ccc(N3CCOCC3)cc2)cc1 [Example 81, 2-[(4-But-3-enyloxy-benzenesulfonyl)-(4-morpholin-4-yl-benzyl)-amino]-N-hydroxy-acetamide-hydrochloride] — 0.37 log units higher, 8.34
- C=CCCOc1ccc(S(=O)(=O)N(CC(=O)NO)Cc2ccc(-n3ccnc3)cc2)cc1 [Example 80, 2-[(4-But-3-enyloxy-benzenesulfonyl)-(4-imidazol-1-yl-benzyl)-amino]-N-hydroxy-acetamide-hydrochloride] — 0.95 log units higher, 8.92
- 2-[(Cyclopropylmethoxy-benzenesulfonyl)-(4-[1,2,4]triazol-1-yl-benzyl)-amino]-N-hydroxyacetamide-hydrochloride salt [Example 82b] — 1.25 log units higher, 9.22
- C#CCOc1ccc(S(=O)(=O)N(CC(=O)NO)Cc2ccc(OC)cc2)cc1 [Example 75, [(4-methoxy-benzyl)-[4-prop-2-ynyloxy-benzenesulfonyl]-amino]-N-hydroxy-acetamide] — 0.88 log units higher, 8.85
- O=C(CN(Cc1ccc(-n2cncn2)cc1)S(=O)(=O)c1ccc(OCCC2CC2)cc1)NO [Example 82a] — 0.77 log units higher, 8.74
